Measurements taken from publication PMC5218480 (PLoS ONE, 2017).

Tested on: MV-4-11 cells
Assay: Gene expression microarray analysis (Affymetrix PrimeView) and GSEA
Type: cell-based, human
Design: RFU PODN (11730768_x_at) / Fold change /veh PODN (11730768_x_at) / RFU LINC00158 (11744669_a_at) / Fold change /veh LINC00158 (11744669_a_at) / RFU DUSP10 (11751237_a_at) / Fold change /veh DUSP10 (11751237_a_at) / RFU ID3 (11757404_x_at) / Fold change /veh ID3 (11757404_x_at) / RFU PLEKHG5 (11737974_s_at) / Fold change /veh PLEKHG5 (11737974_s_at) / RFU LRRC4B (11730491_at) / Fold change /veh LRRC4B (11730491_at) / RFU GIMAP4 (11747438_a_at) / Fold change /veh GIMAP4 (11747438_a_at) / RFU KRT8 (11758183_x_at) / Fold change /veh KRT8 (11758183_x_at) / RFU CNN1 (11734310_a_at) / Fold change /veh CNN1 (11734310_a_at) / RFU VPS37D (11726825_at) / Fold change /veh VPS37D (11726825_at) / RFU C10orf10 (11716522_x_at) / Fold change /veh C10orf10 (11716522_x_at) / RFU KIR2DL2 /// KIR2DL4 /// KIR2DL5A /// KIR2DL5B /// KIR2DS1 /// KIR2DS2 /// KIR2DS3 /// KIR2DS4 /// KIR3DL3 /// KIR3DL3 /// KIR3DS1 (11738374_at) / Fold change /veh KIR2DL2 /// KIR2DL4 /// KIR2DL5A /// KIR2DL5B /// KIR2DS1 /// KIR2DS2 /// KIR2DS3 /// KIR2DS4 /// KIR3DL3 /// KIR3DL3 /// KIR3DS1 (11738374_at) / RFU C1QL1 (11718748_at) / Fold change /veh C1QL1 (11718748_at) / RFU TMPRSS4 (11747572_a_at) / Fold change /veh TMPRSS4 (11747572_a_at) / RFU HAMP (11756126_x_at) / Fold change /veh HAMP (11756126_x_at) / RFU RNFT2 (11725882_a_at) / Fold change /veh RNFT2 (11725882_a_at) / RFU NR4A2 (11747474_a_at) / Fold change /veh NR4A2 (11747474_a_at) / RFU ABCC12 (11746883_a_at) / Fold change /veh ABCC12 (11746883_a_at) / RFU TMEM136 (11760407_x_at) / Fold change /veh TMEM136 (11760407_x_at) / RFU CLDN22 /// WWC2 (11732394_at) / Fold change /veh CLDN22 /// WWC2 (11732394_at) / RFU HLA-DPB1 (11760878_x_at) / Fold change /veh HLA-DPB1 (11760878_x_at) / RFU SPINT1 (11716480_a_at) / Fold change /veh SPINT1 (11716480_a_at) / RFU GAP43 (11754022_s_at) / Fold change /veh GAP43 (11754022_s_at) / RFU A4GNT (11735810_at) / Fold change /veh A4GNT (11735810_at) / RFU PRB3 (11715151_x_at) / Fold change /veh PRB3 (11715151_x_at) / RFU TUBB4B (11761932_at) / Fold change /veh TUBB4B (11761932_at) / RFU CAPN14 (11732068_a_at) / Fold change /veh CAPN14 (11732068_a_at) / RFU TMCC2 (11721928_a_at) / Fold change /veh TMCC2 (11721928_a_at) / RFU IRGQ (11745062_a_at) / Fold change /veh IRGQ (11745062_a_at) / RFU FAM174B (11720279_a_at) / Fold change /veh FAM174B (11720279_a_at) / RFU TMPRSS4 (11748680_a_at) / Fold change /veh TMPRSS4 (11748680_a_at) / RFU FAM212B (11763350_a_at) / Fold change /veh FAM212B (11763350_a_at) / RFU PLEKHG5 (11743358_a_at) / Fold change /veh PLEKHG5 (11743358_a_at) / RFU ZSCAN30 (11745921_a_at) / Fold change /veh ZSCAN30 (11745921_a_at) / RFU CMKLR1 (11741424_a_at) / Fold change /veh CMKLR1 (11741424_a_at) / RFU LOC101060620 /// MAPK8IP1 (11723275_at) / Fold change /veh LOC101060620 /// MAPK8IP1 (11723275_at) / RFU SPTSSB (11747773_x_at) / Fold change /veh SPTSSB (11747773_x_at) / RFU PRSS12 (11739890_at) / Fold change /veh PRSS12 (11739890_at) / RFU BIN1 (11741810_x_at) / Fold change /veh BIN1 (11741810_x_at) / RFU WNT11 (11732464_a_at) / Fold change /veh WNT11 (11732464_a_at) / RFU C10orf10 (11716521_a_at) / Fold change /veh C10orf10 (11716521_a_at) / RFU C5orf56 (11738089_at) / Fold change /veh C5orf56 (11738089_at) / RFU CYB561 (11721691_x_at) / Fold change /veh CYB561 (11721691_x_at) / RFU ANKRD19P (11752326_a_at) / Fold change /veh ANKRD19P (11752326_a_at) / RFU OR2T12 /// OR2T33 /// OR2T8 (11738714_s_at) / Fold change /veh OR2T12 /// OR2T33 /// OR2T8 (11738714_s_at) / RFU VCAN (11748164_a_at) / Fold change /veh VCAN (11748164_a_at) / RFU JSRP1 (11732532_at) / Fold change /veh JSRP1 (11732532_at) / RFU KRTAP10-11 (11738290_x_at) / Fold change /veh KRTAP10-11 (11738290_x_at) / RFU MYO3A (11730013_a_at) / Fold change /veh MYO3A (11730013_a_at) / RFU EBF3 (11725865_a_at) / Fold change /veh EBF3 (11725865_a_at) / RFU CAMK2N1 (11719241_x_at) / Fold change /veh CAMK2N1 (11719241_x_at) / RFU C5orf56 (11738088_a_at) / Fold change /veh C5orf56 (11738088_a_at) / RFU OLFML3 (11715873_a_at) / Fold change /veh OLFML3 (11715873_a_at) / RFU LOC100653217 /// NTM (11731650_a_at) / Fold change /veh LOC100653217 /// NTM (11731650_a_at) / RFU MAPK11 (11762145_a_at) / Fold change /veh MAPK11 (11762145_a_at) / RFU FIZ1 (11724087_x_at) / Fold change /veh FIZ1 (11724087_x_at) / RFU OASL (11726364_x_at) / Fold change /veh OASL (11726364_x_at) / RFU SOX15 (11748057_x_at) / Fold change /veh SOX15 (11748057_x_at) / RFU CD79A (11719716_a_at) / Fold change /veh CD79A (11719716_a_at) / RFU HIST1H1D (11736915_at) / Fold change /veh HIST1H1D (11736915_at) / RFU CASKIN2 (11723855_a_at) / Fold change /veh CASKIN2 (11723855_a_at) / RFU LOC730098 (11760151_x_at) / Fold change /veh LOC730098 (11760151_x_at) / RFU OR4N2 (11742367_at) / Fold change /veh OR4N2 (11742367_at) / RFU PRRT2 (11749266_a_at) / Fold change /veh PRRT2 (11749266_a_at) / RFU SNX32 (11753110_a_at) / Fold change /veh SNX32 (11753110_a_at) / RFU CDHR5 (11726645_a_at) / Fold change /veh CDHR5 (11726645_a_at) / RFU RCAN1 (11760418_a_at) / Fold change /veh RCAN1 (11760418_a_at) / RFU FAM167A (11723789_a_at) / Fold change /veh FAM167A (11723789_a_at) / RFU FAM26E (11764081_at) / Fold change /veh FAM26E (11764081_at) / RFU ISYNA1 (11749810_s_at) / Fold change /veh ISYNA1 (11749810_s_at) / RFU ACY1 (11761880_at) / Fold change /veh ACY1 (11761880_at) / RFU 11764098_at / Fold change /veh 11764098_at / RFU SAMD14 (11745864_x_at) / Fold change /veh SAMD14 (11745864_x_at) / RFU NPB (11741838_a_at) / Fold change /veh NPB (11741838_a_at) / RFU TMPRSS6 (11731388_a_at) / Fold change /veh TMPRSS6 (11731388_a_at) / RFU KRTAP10-2 (11738614_at) / Fold change /veh KRTAP10-2 (11738614_at) / RFU ARHGAP8 /// PRR5-ARHGAP8 (11727945_x_at) / Fold change /veh ARHGAP8 /// PRR5-ARHGAP8 (11727945_x_at) / RFU KRTAP5-7 /// NADSYN1 (11734609_at) / Fold change /veh KRTAP5-7 /// NADSYN1 (11734609_at) / RFU RASL12 (11751679_a_at) / Fold change /veh RASL12 (11751679_a_at) / RFU CDKN2B (11736163_a_at) / Fold change /veh CDKN2B (11736163_a_at) / RFU PRF1 (11729649_at) / Fold change /veh PRF1 (11729649_at) / RFU, ZNF638 /// ZNF638-IT1 / Fold change vs veh, ZNF638 /// ZNF638-IT1 / RFU, PANK3 / Fold change vs veh, PANK3 / RFU, SH3YL1 / Fold change vs veh, SH3YL1 / RFU, ZEB2 / Fold change vs veh, ZEB2 / RFU, NRIP1 / Fold change vs veh, NRIP1 / RFU, PTTG1IP / Fold change vs veh, PTTG1IP / RFU, CAPN2 / Fold change vs veh, CAPN2 / RFU, MED14 / Fold change vs veh, MED14 / RFU, SNORA58 / Fold change vs veh, SNORA58 / RFU, C1orf63 / Fold change vs veh, C1orf63 / RFU, LRRFIP1 / Fold change vs veh, LRRFIP1 / RFU, NDUFAF7 / Fold change vs veh, NDUFAF7 / RFU, SLC12A2 / Fold change vs veh, SLC12A2 / RFU, IBTK / Fold change vs veh, IBTK / RFU, ESF1 / Fold change vs veh, ESF1 / Fold change vs veh, TMEM50B / RFU, TAOK1 / Fold change vs veh, TAOK1 / RFU, ACBD3 / Fold change vs veh, ACBD3 / RFU, TMA16 / Fold change vs veh, TMA16 / RFU, RWDD3 / Fold change vs veh, RWDD3 / RFU, BCAT1 / Fold change vs veh, BCAT1 / RFU, EDEM3 / Fold change vs veh, EDEM3 / RFU, TMEM33 / Fold change vs veh, TMEM33 / RFU, WDR75 / Fold change vs veh, WDR75 / RFU, AHCTF1 / Fold change vs veh, AHCTF1 / RFU, TFRC / Fold change vs veh, TFRC / RFU, ZDHHC17 / Fold change vs veh, ZDHHC17 / RFU, NOM1 / Fold change vs veh, NOM1 / RFU, ARL8B / Fold change vs veh, ARL8B / RFU, ZBTB11 / Fold change vs veh, ZBTB11 / RFU, TAMM41 / Fold change vs veh, TAMM41 / RFU, KIAA1704 /// LOC100996395 / Fold change vs veh, KIAA1704 /// LOC100996395 / RFU, ING1 / Fold change vs veh, ING1 / RFU, TRMT61B / Fold change vs veh, TRMT61B / RFU, FUBP3 / Fold change vs veh, FUBP3 / RFU, TP53 / Fold change vs veh, TP53 / RFU, TNKS2 / Fold change vs veh, TNKS2 / RFU, ZFP14 / Fold change vs veh, ZFP14 / RFU, ACTR2 / Fold change vs veh, ACTR2 / RFU, PPP3R1 / Fold change vs veh, PPP3R1 / RFU, PIK3R1 / Fold change vs veh, PIK3R1 / RFU, HNRNPA1 / Fold change vs veh, HNRNPA1 / RFU, RNF170 / Fold change vs veh, RNF170 / RFU, ZNF28 / Fold change vs veh, ZNF28 / RFU, RNGTT / Fold change vs veh, RNGTT / RFU, OGT / Fold change vs veh, OGT / RFU, BRD1 / Fold change vs veh, BRD1 / RFU, MARS / Fold change vs veh, MARS / RFU, ZNF655 / Fold change vs veh, ZNF655 / RFU, FAHD1 / Fold change vs veh, FAHD1 / RFU, BDP1 / Fold change vs veh, BDP1 / RFU, LRRCC1 / Fold change vs veh, LRRCC1 / RFU, ARID1A / Fold change vs veh, ARID1A / RFU, ZNF146 / Fold change vs veh, ZNF146 / RFU, ZNF330 / Fold change vs veh, ZNF330 / RFU, GPN3 / Fold change vs veh, GPN3 / RFU, C9orf123 / Fold change vs veh, C9orf123 / RFU, N4BP2L2 / Fold change vs veh, N4BP2L2 / RFU, ARFIP1 / Fold change vs veh, ARFIP1 / RFU, FAM179B / Fold change vs veh, FAM179B / RFU, BCL10 / Fold change vs veh, BCL10 / RFU, UHRF1BP1L / Fold change vs veh, UHRF1BP1L / RFU, BET1 / Fold change vs veh, BET1 / RFU, CNOT2 / Fold change vs veh, CNOT2 / RFU, ZNF268 / Fold change vs veh, ZNF268 / Fold change vs veh, ZNF507 / RFU, DGCR2 / Fold change vs veh, DGCR2 / RFU, WDSUB1 / Fold change vs veh, WDSUB1 / Fold change vs veh, HSP90B1 /// MIR3652 / RFU, ADSS / Fold change vs veh, ADSS / RFU, GK / Fold change vs veh, GK / RFU, ZNF148 / Fold change vs veh, ZNF148 / RFU, TAF9 / Fold change vs veh, TAF9 / RFU, SLC1A5 / Fold change vs veh, SLC1A5 / RFU, SLMO2 / Fold change vs veh, SLMO2 / RFU, ABCC4 / Fold change vs veh, ABCC4 / RFU, LOC101060439 /// RAP1B / Fold change vs veh, LOC101060439 /// RAP1B / RFU, RFX7 / Fold change vs veh, RFX7 / RFU, GTPBP10 / Fold change vs veh, GTPBP10 / RFU, CNEP1R1 / Fold change vs veh, CNEP1R1 / RFU, BIVM-ERCC5 /// ERCC5 / Fold change vs veh, BIVM-ERCC5 /// ERCC5 / RFU, ILF3 / Fold change vs veh, ILF3 / RFU 11762660_at / Fold change /veh 11762660_at / RFU VCAN (11757783_s_at) / Fold change /veh VCAN (11757783_s_at) / RFU DDX43 (11728927_at) / Fold change /veh DDX43 (11728927_at) / RFU KRT8 (11758188_x_at) / Fold change /veh KRT8 (11758188_x_at) / RFU NKD1 (11759106_at) / Fold change /veh NKD1 (11759106_at) / RFU SRD5A1 (11742802_a_at) / Fold change /veh SRD5A1 (11742802_a_at) / RFU TPSAB1 /// TPSB2 (11721975_s_at) / Fold change /veh TPSAB1 /// TPSB2 (11721975_s_at) / RFU GSTM3 (11746129_a_at) / Fold change /veh GSTM3 (11746129_a_at) / RFU IL23R (11737362_x_at) / Fold change /veh IL23R (11737362_x_at) / RFU TMEM51 (11727254_a_at) / Fold change /veh TMEM51 (11727254_a_at) / RFU PIWIL2 (11732686_x_at) / Fold change /veh PIWIL2 (11732686_x_at) / RFU ORM1 (11744905_x_at) / Fold change /veh ORM1 (11744905_x_at) / RFU CCDC152 (11743942_at) / Fold change /veh CCDC152 (11743942_at) / RFU ECM1 (11717891_a_at) / Fold change /veh ECM1 (11717891_a_at) / RFU IL23R (11748794_a_at) / Fold change /veh IL23R (11748794_a_at) / RFU TNFAIP8L3 (11732012_x_at) / Fold change /veh TNFAIP8L3 (11732012_x_at) / RFU MBOAT4 (11741988_at) / Fold change /veh MBOAT4 (11741988_at) / RFU 11764193_at / Fold change /veh 11764193_at / RFU TMEM53 (11763286_at) / Fold change /veh TMEM53 (11763286_at) / RFU MAGEB2 (11727129_at) / Fold change /veh MAGEB2 (11727129_at) / RFU TMEM200A (11744735_a_at) / Fold change /veh TMEM200A (11744735_a_at) / RFU CCDC152 (11751479_a_at) / Fold change /veh CCDC152 (11751479_a_at) / RFU FAM211A (11726209_a_at) / Fold change /veh FAM211A (11726209_a_at) / RFU RGS16 (11746705_a_at) / Fold change /veh RGS16 (11746705_a_at) / RFU VCAN (11755009_s_at) / Fold change /veh VCAN (11755009_s_at) / RFU RHOB (11743442_s_at) / Fold change /veh RHOB (11743442_s_at) / RFU RGS16 (11720943_a_at) / Fold change /veh RGS16 (11720943_a_at) / RFU RGS16 (11720944_at) / Fold change /veh RGS16 (11720944_at) / RFU, VPS4B / Fold change vs veh, VPS4B / RFU, CREB1 / Fold change vs veh, CREB1 / RFU, DNAJC13 / Fold change vs veh, DNAJC13 / RFU, GNAQ / Fold change vs veh, GNAQ / RFU, CDK5R1 / Fold change vs veh, CDK5R1 / RFU, ZRANB3 / Fold change vs veh, ZRANB3 / RFU, CUL4A / Fold change vs veh, CUL4A / RFU, CCNY / Fold change vs veh, CCNY / RFU, UFL1 / Fold change vs veh, UFL1 / RFU, COG3 / Fold change vs veh, COG3 / RFU, DIAPH2 / Fold change vs veh, DIAPH2 / RFU, SKA2 / Fold change vs veh, SKA2 / RFU, AFF3 / Fold change vs veh, AFF3 / RFU, LMF1 / Fold change vs veh, LMF1 / RFU, IPO11 / Fold change vs veh, IPO11 / RFU, DFFB / Fold change vs veh, DFFB / RFU, FOXP1 / Fold change vs veh, FOXP1 / RFU, CARD8 / Fold change vs veh, CARD8 / RFU, STRN3 / Fold change vs veh, STRN3 / RFU, ADK / Fold change vs veh, ADK / RFU, RASSF2 / Fold change vs veh, RASSF2 / RFU, WIPF1 / Fold change vs veh, WIPF1 / RFU, LARP1B / Fold change vs veh, LARP1B / RFU, RASA1 / Fold change vs veh, RASA1 / RFU, RB1 / Fold change vs veh, RB1 / RFU, PPFIA1 / Fold change vs veh, PPFIA1 / RFU, MAT2A / Fold change vs veh, MAT2A / RFU, CCT5 / Fold change vs veh, CCT5 / RFU, WDR92 / Fold change vs veh, WDR92 / RFU, CUX1 / Fold change vs veh, CUX1 / RFU, TTC7A / Fold change vs veh, TTC7A / RFU, TMEM135 / Fold change vs veh, TMEM135 / RFU, DEPTOR / Fold change vs veh, DEPTOR / RFU, CPM / Fold change vs veh, CPM / RFU, DNAJB6 / Fold change vs veh, DNAJB6 / RFU, CACNA2D3 / Fold change vs veh, CACNA2D3 / RFU, DTX4 / Fold change vs veh, DTX4 / RFU, TFCP2 / Fold change vs veh, TFCP2 / RFU, GMCL1 /// GMCL1P1 / Fold change vs veh, GMCL1 /// GMCL1P1 / RFU, AEBP2 / Fold change vs veh, AEBP2 / RFU, SNHG1 /// SNORD22 /// SNORD25 /// SNORD26 /// SNORD27 /// SNORD28 /// SNORD29 /// SNORD31 / Fold change vs veh, SNHG1 /// SNORD22 /// SNORD25 /// SNORD26 /// SNORD27 /// SNORD28 /// SNORD29 /// SNORD31 / Fold change (Aza/veh), C12orf56 (ProbeSet 11735607_a_at) / Fold change (ACY-1035/veh), C12orf56 (ProbeSet 11735607_a_at) / Fold change (Aza/veh), FGFR1OP (ProbeSet 11751329_s_at) / Fold change (ACY-1035/veh), FGFR1OP (ProbeSet 11751329_s_at) / Fold change (Aza/veh), VPS36 (ProbeSet 11739960_a_at) / Fold change (ACY-1035/veh), VPS36 (ProbeSet 11739960_a_at) / RFU SYPL1 (11715823_x_at) / Fold change /veh SYPL1 (11715823_x_at) / RFU IGFBP7 (11715501_s_at) / Fold change /veh IGFBP7 (11715501_s_at) / RFU REEP3 (11722064_at) / Fold change /veh REEP3 (11722064_at) / RFU IGLL1 (11728026_x_at) / Fold change /veh IGLL1 (11728026_x_at): dose or concentration left out as unconfirmed
Conditions: MV-4-11 cells, 48 hours

## Nc1ncn([C@@H]2O[C@H](CO)[C@@H](O)[C@H]2O)c(=O)n1 [azacitidine]
  RFU TMPRSS4 (11748680_a_at): 47.70 RFU
